Literature values, collected in PMC11040670, “Mechanistic and Kinetic Insights into Cellular Uptake of Biomimetic Dinitrosyl Iron Complexes and Intracellular Delivery of NO for Activation of Cytoprotective HO-1” (JACS Au, 2024).

Columns and labels:
[1] = set-up: method as in doi:10.1021/j100627a005; settings: cited from earlier work
Prx 1 = system: Prx 1; set-up: method as in earlier work; settings: generated [(NO)2Fe(SGS)(SCys-Prx1)]n–, phosphate buffer (pH 7.4), normoxia; ref SI 4; cited from earlier work

O=C(O)CCS [HSCH2CH2COOH]
pKa for the carboxylic acid group [1]: 4.3

[(NO)2Fe(SGS)2]n– and [(NO)2Fe(-SGS)2Fe(NO)2]m– [DNDGIC]
k, second-order rate constant (Prx 1): 7.0 ± 0.4 M⁻¹ s⁻¹
